Laboratory results as given in patent US9238036B2, “Pharmaceutical uses of lanosta-8,24-dien-3-ols” (priority 2008, dated 2016).

Assays:
Assay type in all cases: in vivo
PKC = PKC activity on the skin of mice, ELISA; details: topical, FIG. 2
Procedure: (§1) In all examples that follow, 20-30 g male mice were kept in filtered-air ventilated cages, with controlled temperature (22±2° C.) and humidity (50-60%), 12 h light/12 h dark cycles, with free access to water and food. The animals remained in the lab for an adaptation period of at least 1 hour before the pharmacological tests, held between 8:00 and 17:00 h.
This was an evaluation of the effect of the compounds of the invention upon the PKC activity, on the skin of mice. The animals received the following 100 μg/ear compositions: • a positive control, namely TPA (tetradecanoylphorbol-13-acetate), 2.5 μg/ear, in a vehicle comprising a 3:1 mixture of acetone:ethanol. • a negative control, namely the vehicle, which is a 3:1 mixture of acetone:ethanol; • A mixture of 100 μg euphol and 2.5 μg TPA, per ear, in a vehicle comprising a 3:1 mixture of acetone:ethanol.
5-member groups of mice were topically applied, in the inner surface of the ears, the compositions above. The PKC activity, before and after exposure to the tested compositions, was measured using ELISA (enzyme-linked immuno sorbent assay).

mice [1] = test: Persistent inflammatory nociception induced by CFA, Von Frey filament; details: FIGS. 4A; for mechanical hypernociception induced by CFA, acute treatment: euphol 30 mg/kg or gabapentin 70 mg/kg oral, 1 h before CFA, 0.6 g Von Frey, 4B
Procedure: as §1
(§2) The animals' nociceptive mechanical threshold was evaluated as the response frequency of paw withdrawal after ten applications of a Von Frey filament (VHF, Stoelting, Chicago, USA). The animals were individually placed in 9×7×11 cm transparent acrylic compartments over an elevated wire mesh platform, to allow access to the paw plantar surfaces. The Von Frey filament was applied to the right hind paw, watching the criteria of (1) application perpendicular to the plantar surface with enough pressure to bend the filament, so as to ensure total pressure; (2) the animals were evaluated when all four paws were accommodated on the wire mesh; (3) a paw withdrawal response was considered when the animal removed the paw entirely from the wire mesh; (4) each animal was stimulated 10 consecutive times, with 1 second duration each stimulation; (5) each paw withdrawal was considered as 10% of a response, with 10 withdrawals corresponding to 100% response. […]
Animals were treated orally with 30 mg/kg euphol or 70 mg/kg gabapentin (positive control), 1 hour before the CFA injection. The mechanical hypernociception was measured through stimulation with a 0.6 g Von Frey filament in time intervals of 1, 2, 4, 6, 8, 24 and 48 hours after CFA injection, and up to the re-establishment of the nociceptive response. […] For that, animals received daily 30 mg/kg euphol, orally, for 5 days, and hypernociception was evaluated once a day, 4 hours after the first administration. Mechanical hypernociception was evaluated until the return of the painful response. […]

mice ears = test: Ear thickness after topical TPA (irritating effect / inflammation), mice ears; details: euphol 100 μg/ear with TPA 2.5 μg/ear, acetone:ethanol 3:1, FIG. 1
Procedure: as §1
A characterization of the irritating effect of certain chemical compounds was effected, by comparing the results of treating mice ears topically with: • a positive control, namely TPA (tetradecanoylphorbol-13-acetate), 2.5 μg/ear, in a vehicle comprising a 3:1 mixture of acetone:ethanol. • a negative control, namely the vehicle, which is a 3:1 mixture of acetone:ethanol; • Euphol, 100 μg/ear, a compound of the invention, in a vehicle comprising a 3:1 mixture of acetone:ethanol; • A mixture of 100 μg of euphol and 2.5 μg TPA, per ear, in a vehicle comprising a 3:1 mixture of acetone:ethanol.
5-member groups of mice were topically applied, in the inner surface of the ears, the compositions above. The thickness of the ears, before and after exposure to the tested compositions, was measured using a digital micrometer, and the responses were expressed as mμ.

mice [2] = test: Neuropathic pain induced by partial constriction of the sciatic nerve, Von Frey filament; details: FIGS. 5A; for mechanical nociceptive response induced by partial constriction of the sciatic nerve, acute treatment: euphol 30 mg/kg or gabapentin 70 mg/kg oral on 4th post-operatory day, 5B; for mechanical hypernociception induced by partial constriction of the sciatic nerve, prolonged treatment: once a day for 5 days from the 6th day, 5C
Procedure: as §1
The animals' nociceptive mechanical threshold was evaluated as the response frequency of paw withdrawal after ten applications of a Von Frey filament (VHF, Stoelting, Chicago, USA). The animals were individually placed in 9×7×11 cm transparent acrylic compartments over an elevated wire mesh platform, to allow access to the paw plantar surfaces. The Von Frey filament was applied to the right hind paw, watching the criteria of (1) application perpendicular to the plantar surface with enough pressure to bend the filament, so as to ensure total pressure; (2) the animals were evaluated when all four paws were accommodated on the wire mesh; (3) a paw withdrawal response was considered when the animal removed the paw entirely from the wire mesh; (4) each animal was stimulated 10 consecutive times, with 1 second duration each stimulation; (5) each paw withdrawal was considered as 10% of a response, with 10 withdrawals corresponding to 100% response.
The procedure here employed was similar to the one described for rats (Pain, 43:205-218, 1990), modified for mice ((Pain, 76:215-222, 1998), and standardized by Bortolanza et al (Eur J Pharmacol., 453:203-208, 2002). The mice were anesthetized with 7% chloral hydrate (0.6% ml/kg […]). Then the sciatic nerve was exposed on top of the thigh about the sciatic trifurcation, and ⅓-½ of the dorsal portion was tied with a suture filament no. 8. In the false-operated group, the sciatic nerve was exposed without the tying. On the 4th post-operatory day, a group of animals was treated orally with 30 mg/kg euphol, and another group treated orally with 70 mg/kg gabapentin, as a positive control. In predetermined times after the treatment (1, 2, 4, 6, 8, 24 and 48 hours) the mechanical threshold was evaluated, through stimulation with a 0.6 Von Frey filament. To assess the effect of the prolonged treatment, the animals were daily administered euphol, from the 6th day, for 5 days and the mechanical hypernociception was evaluated once a day, 4 h after the first administration, until the return of the nociceptive response similar to the control group. After that, the prolonged treatment protocol was repeated to evaluate a possible development of tolerance to the compound.

mice [3] = test: Inflammatory nociception induced by carragenan, Von Frey filament; details: acute; euphol 30 μg/kg oral 1 h before, dexamethasone 0.5 mg/kg s.c. 4 h before carragenan 300 μg/paw; 0.6 g Von Frey; FIGS. 3A, 3B
Procedure: as §1
as §2, with “The animals were individually placed in 9×7×11 cm transparent acrylic compartments over an elevated wire mesh platform, to allow access to the paw plantar surfaces.” left out
The animals were treated orally with euphol (30 μg/kg) one hour before the carragenan injection. […] Hypernociception was evaluated hourly during 8 hours with a 0.6 g Von Frey filament, as well as after 24 and 48 hours after carragenan injection.

SMILES	PKC activity (ELISA absorbance) vs vehicle group (PKC; TPA 2.5 μg/ear)	mechanical hypernociception induced by CFA, acute treatment (mice [1])	nociceptive response caused by CFA, prolonged treatment (mice [1]; once a day for 5 days, euphol 30 mg/kg oral, 4C)	PKC activity increase induced by TPA (ELISA absorbance) (PKC; 100 μg euphol + 2.5 μg TPA per ear)	inhibitory effect on ear thickness increase (inflammation) (mice ears)	mechanical nociceptive response induced by partial constriction of the sciatic nerve, acute treatment (mice [2])	mechanical hypernociception induced by partial constriction of the sciatic nerve, prolonged treatment (mice [2])	inflammatory mechanical hypernociception induced by carragenan (frequency of response, AUC) (mice [3])
CCCCCCCCCCCCCC(=O)O[C@@H]1[C@@H](C)[C@@]2(O)[C@@H](C=C(CO)C[C@]3(O)C(=O)C(C)=C[C@@H]23)[C@@H]2C(C)(C)[C@]12OC(C)=O [TPA, tetradecanoylphorbol-13-acetate, reference compound]	significant increase in the PKC activity							
CC(C)=CCC[C@@H](C)[C@@H]1CC[C@]2(C)C3=C(CC[C@@]12C)[C@@]1(C)CC[C@H](O)C(C)(C)[C@@H]1CC3 [euphol]		reduced significantly	inhibition of the nociceptive response caused by CFA during the 6 following days of treatment	significantly reduces the increase in PKC activity induced by TPA	significant even up to 24 hours after the treatment	inhibited in a significant manner	reduced in a significant manner	significantly reduced
NCC1(CC(=O)O)CCCCC1 [gabapentin, reference compound]		close to the effect obtained with gabapentin				inhibited in a significant manner	reduced in a significant manner	
